# Like-named read-outs stand apart in the source and are kept apart here.
# Key:
# [1] = test system: clinical isolates carrying AAC(3)-IV; assay: MIC broth microdilution, AAC(3)-IV; format: cell-based; settings: for MIC: clinical isolates, IMM Univ. Zurich, AAC(3)-IV, read-out: MIC AAC(3)-IV
# Outline: (§1)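 Clinical isolates supplied by the Zurich Institute of Medical Microbiology were tested for MIC (μg/ml) using CLSI M07-A10 broth microdilution.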
# [2] = test system: clinical isolates carrying APH(3′)-I; assay: MIC broth microdilution, APH(3′)-I; format: cell-based; settings: IMM Univ. Zurich
# [3] = test system: clinical isolates carrying APH(3′)-II; assay: MIC broth microdilution, APH(3′)-II; format: cell-based; settings: clinical isolates, IMM Univ. Zurich; APH(3′)-II; read-out: MIC APH(3′)-II
# [4] = test system: clinical isolates carrying APH(3′)-III; assay: MIC broth microdilution, APH(3′)-III; format: cell-based; settings: IMM Univ. Zurich
# [5] = test system: clinical isolates carrying APH(3′)-VI; assay: MIC broth microdilution, APH(3′)-VI; format: cell-based; settings: IMM Univ. Zurich
# [6] = test system: bacterial ribosomes; assay: in-vitro translation assay, bacterial ribosomes; format: biochemical
# Outline: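 Inhibitory potency was determined as IC50 in in-vitro translation systems based on bacterial ribosomes, human chimeric (mitochondrial-type) ribosomes or rabbit reticulocyte (cytosolic) ribosomes.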
# [7] = test system: human mitochondrial ribosomes; assay: in-vitro translation assay, human mitochondrial (human chimeric) ribosomes; format: biochemical
# Outline: (§2)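 Translation inhibition is measured in vitro with isolated ribosomes, and IC50 derived. The human cytosolic values actually use rabbit reticulocyte ribosomes, and the mitochondrial values use human chimeric ribosomes.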
# [8] = test system: human cytosolic ribosomes; assay: in-vitro translation assay, human cytosolic ribosomes; format: biochemical
# Outline: as §2
# [9] = test system: AG212, Escherichia coli ATCC25922; assay: MIC reference strain AG212; format: cell-based; settings: Escherichia coli; reference strain ATCC25922; read-out: MIC AG212 E. coli
# Outline: (§3)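 The method determines minimal inhibitory concentrations using the standard CLSI microdilution procedure in liquid medium.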
# [10] = test system: AG215, Klebsiella pneumonia; assay: MIC reference strain AG215; format: cell-based; settings: Klebsiella pneumoniae, reference strain; read-out: MIC AG215 K. pneumonia
# Outline: as §3
# [11] = test system: AG290, Enterobacter cloacae; assay: MIC reference strain AG290; format: cell-based; settings: Enterobacter cloacae; reference strain; read-out: MIC AG290 E. cloacae
# Outline: as §3
# [12] = test system: AG220, Pseudomonas aeruginosa ATCC27853; assay: MIC reference strain AG220; format: cell-based; settings: Pseudomonas aeruginosa, ATCC27853, reference strain ATCC27853; read-out: MIC AG220 P. aeruginosa
# Outline: as §3
# [13] = test system: AG225, Acinetobacter baumannii pittii; assay: MIC reference strain AG225; format: cell-based; settings: Acinetobacter baumannii, reference strain; read-out: MIC AG225 A. baumannii
# Outline: as §3
# [14] = test system: ATCC19977 M. abcessus; assay: MIC reference strain ATCC19977; format: cell-based; settings: read-out: MIC ATCC19977 M. abcessus
# Outline: (§4)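 Susceptibility was tested per CLSI aerobic dilution protocol using microbroth format, with the MIC taken as the end point.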
# [15] = test system: AG001 E. coli WT; assay: Antibacterial activity, clinical isolate AG001; format: cell-based; design: unit not given here
# Outline: as §4
# [16] = test system: AG055 E. coli WT; assay: Antibacterial activity, clinical isolate AG055; format: cell-based; design: unit not given here
# Outline: as §4
# [17] = test system: AG003 E. coli AAC(3)-II; assay: Antibacterial activity, clinical isolate AG003; format: cell-based
# Outline: as §4
# [18] = test system: AG173 E. coli AAC(3)-IV; assay: Antibacterial activity, clinical isolate AG173; format: cell-based
# Outline: as §4
# [19] = test system: AG163 E. coli APH(3′)-I; assay: Antibacterial activity, clinical isolate AG163; format: cell-based
# Outline: as §4
# [20] = test system: AG038 MRSA; assay: Antibacterial activity, clinical isolate AG038; format: cell-based; design: unit not given here
# Outline: as §4
# [21] = test system: AG039 MRSA AAC(6′)-I ANT(4′)-I; assay: Antibacterial activity, clinical isolate AG039; format: cell-based
# Outline: as §4
# [22] = test system: AG042 MRSA AAC(6′)-I ANT(4′)-I APH(2′); assay: Antibacterial activity, clinical isolate AG042; format: cell-based; design: unit not given here
# Outline: as §4
# [23] = test system: AG031 P. aer. APH(3′)-II; assay: Antibacterial activity, clinical isolate AG031; format: cell-based; design: unit not given here
# Outline: as §4
# [24] = test system: AG032 P. aer. APH(3′)-II; assay: Antibacterial activity, clinical isolate AG032; format: cell-based; design: unit not given here
# Outline: as §4
# [25] = test system: AG033 P. aer. APH(3′)-II AAC(6′)-I; assay: Antibacterial activity, clinical isolate AG033; format: cell-based; design: unit not given here
# Outline: as §4
# [26] = test system: Engineered E. coli pH430 WT; assay: Activity, engineered E. coli pH430 WT; format: cell-based; settings: wild type
# Outline: (§5)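 Susceptibility was measured as minimal inhibitory concentration using a standardized broth microdilution protocol (CLSI document M07-A10).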
# [27] = test system: Engineered E. coli AG103 armA; assay: Activity against G1405-methylated 16S-rRNA, E. coli AG103 armA; format: cell-based
# Outline: as §5
# [28] = test system: Engineered E. coli pH424 armA; assay: Activity against G1405-methylated 16S-rRNA, E. coli pH424 armA; format: cell-based
# Outline: as §5
# [29] = test system: Engineered E. coli pH425 rmtB; assay: Activity against G1405-methylated 16S-rRNA, E. coli pH425 rmtB; format: cell-based
# Outline: as §5
# [30] = test system: Engineered E. coli pH426 rmtC; assay: Activity against G1405-methylated 16S-rRNA, E. coli pH426 rmtC; format: cell-based
# Outline: as §5
# [31] = test system: Engineered E. coli pH427 rmtF; assay: Activity against G1405-methylated 16S-rRNA, E. coli pH427 rmtF; format: cell-based
# Outline: as §5
# [32] = test system: E. coli AG153 AAC(3)-II APH(3′)-II rmtB; assay: Activity against G1405-methylated 16S-rRNA, clinical isolate AG153; format: cell-based
# Outline: as §5
# [33] = test system: K. pneum. AG269 AAC(3)-II AAC(6′)-I rmtB; assay: Activity against G1405-methylated 16S-rRNA, clinical isolate AG269; format: cell-based
# Outline: as §5
# [34] = test system: Enterob. AG302 AAC(3)-II AAC(6′)-I rmtC; assay: Activity against G1405-methylated 16S-rRNA, clinical isolate AG302; format: cell-based
# Outline: as §5
# [35] = test system: A baum. AG227 APH(3′)-I armA; assay: Activity against G1405-methylated 16S-rRNA, clinical isolate AG227; format: cell-based
# Outline: as §5
# [36] = test system: APH(3′, 5″) resistance determinant; assay: Susceptibility to the APH(3′, 5″) resistance determinant; format: cell-based
# Excerpt: Minimal inhibitory concentrations (MIC) have been determined by broth microdilution assays (CLSI. Methods for Dilution Antimicrobial Susceptibility Tests for Bacteria That Grow Aerobically; Approved Standard—Tenth Edition. CLSI document M07-A10. Wayne, Pa.: Clinical and Laboratory Standards Institute; 2015.).
# The introduction of a formamido group results in compounds that display increased selectivity for the bacterial ribosome over the mitochondrial (wild type and A1555G mutant) ribosomes, predictive of reduced ototoxicity.
# [37] = test system: eukaryotic ribosomes; assay: in-vitro translation assays, bacterial versus eukaryotic ribosomes; format: biochemical
# Excerpt: IC50 values for bacterial, human chimeric, and rabbit reticulocyte ribosomes have been determined by in-vitro translation assays as described previously (Proc. Nat. Ac. Sci USA 2012, 109(27):10984-10989).
# [38] = test system: WT clinical isolates; assay: MIC broth microdilution, WT; format: cell-based; settings: read-out: MIC WT, clinical isolates, IMM Univ. Zurich; wild type
# Outline: as §1
# [39] = test system: isolates carrying apmA; assay: MIC broth microdilution, apmA; format: cell-based; settings: for MIC: apmA resistance gene
# Outline: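 Clinical isolates carrying apmA, from the University of Zurich Institute of Medical Microbiology, were tested by broth microdilution following CLSI M07-A10; values are MICs in μg/ml.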
# [40] = test system: N. gonorrhoeae; assay: Disk diffusion N. gonorrhoeae; format: cell-based
Structure (SMILES),MIC [1],IC50 [6],IC50 [7],IC50 [8],MIC [9],MIC [10],MIC [11],MIC [12],MIC [13],Antibacterial activity AG001 E. coli WT [15],Antibacterial activity AG055 E. coli WT [16],Antibacterial activity AG003 E. coli AAC(3)-II [17],Antibacterial activity AG173 E. coli AAC(3)-IV [18],Antibacterial activity AG038 MRSA [20],Antibacterial activity AG039 MRSA AAC(6′)-I ANT(4′)-I [21],Antibacterial activity AG042 MRSA AAC(6′)-I ANT(4′)-I APH(2′) [22],Antibacterial activity AG031 P. aer. APH(3′)-II [23],Antibacterial activity AG032 P. aer. APH(3′)-II [24],Antibacterial activity AG033 P. aer. APH(3′)-II AAC(6′)-I [25],Activity E. coli pH430 WT [26],other results
"CNC1C(OC2OC(CO)C(N)C(O)C2O)OC2CC(N)C(OC3C(N)CC(N)C(O)C3OC3OC(CO)C(OCCN)C3O)OC2C1O [DC124, 5-O-β-(3′″-O-(2-Aminoethyl)-D-ribofuranosyl) apramycin]",> 32 µg/mL,0.06 µM,57 µM,181 µM,2 µg/mL,1 to 2 µg/mL,1 to 2 µg/mL,16 to 32 µg/mL,8 µg/mL,8,8,4-8,4,8-16,8,8,32-64,32-64,128,2,"activity against the IMM clinical isolates carrying the gene for AAC(3)-IV [1]: excellent antiribosomal and antibacterial activity; MIC [2]: 64 µg/mL; MIC [3]: 2 µg/mL; MIC [4]: 0.5 µg/mL; MIC [5]: 4 µg/mL; MIC [14]: 8 µg/mL; Antibacterial activity AG163 E. coli APH(3′)-I [19]: 4-8; Activity E. coli AG103 armA [27]: 0.5; Activity E. coli pH424 armA [28]: 1; Activity E. coli pH425 rmtB [29]: 4; Activity E. coli pH426 rmtC [30]: 2; Activity E. coli pH427 rmtF [31]: 2; Activity E. coli AG153 AAC(3)-II APH(3′)-II rmtB [32]: 4; Activity K. pneum. AG269 AAC(3)-II AAC(6′)-I rmtB [33]: 2; Activity Enterob. AG302 AAC(3)-II AAC(6′)-I rmtC [34]: 4; Activity A baum. AG227 APH(3′)-I armA [35]: 16; susceptibility to the APH(3′, 5″) resistance determinant [36]: susceptible; activity against eukaryotic ribosomes [37]: only low activity; selectivity at the target level ([37]; bacterial versus eukaryotic ribosomes): excellent selectivity"
"CNC1C(OC2OC(CO)C(N)C(O)C2O)OC2CC(N)C(OC3C(N)CC(N)C(O)C3O)OC2C1O (stereo not drawn) [DC161, 5-Epi-apramycin]",> 32 µg/mL,0.05 µM,20 µM,17 µM,2 µg/mL,1 µg/mL,2 µg/mL,2 µg/mL,2 µg/mL,4,4,4-8,64,4,4,2-4,4,4,8,2,MIC [38]: 2 µg/mL; circumvention of the resistance mechanism apmA [39]: circumvent the resistance mechanism apmA; MIC [39]: 2 µg/mL; MIC ([14]; reference strain): 0.5 µg/mL; Disk diffusion 25 nmol N. gonorrhoeae [40]: 10 mm; Activity E. coli pH424 armA [28]: 2; Activity E. coli pH425 rmtB [29]: 2; Activity E. coli pH426 rmtC [30]: 2; Activity E. coli pH427 rmtF [31]: 2
CNC1C(O[C@H]2OC(CO)[C@@H](N)C(O)C2O)O[C@H]2CC(N)[C@@H](O[C@@H]3C(N)C[C@@H](N)C(O)C3O)OC2C1O (stereo partly drawn) [apramycin],> 128 µg/mL,0.08 µM,68 µM,71 µM,4 µg/mL,2 µg/mL,4 µg/mL,4 µg/mL,4 µg/mL,8-16,8,8,≥128,4-8,8,8,8-16,8,16-32,2-4,MIC [38]: 2 to 4 µg/mL; MIC [2]: 1 to 2 µg/mL; MIC [4]: 1 µg/mL; MIC [5]: 4 µg/mL; MIC [39]: 64 µg/mL; MIC ([14]; reference strain): 2 µg/mL; Disk diffusion 25 nmol N. gonorrhoeae [40]: <8 mm; Antibacterial activity AG163 E. coli APH(3′)-I [19]: 4; Activity E. coli AG103 armA [27]: 1-2; Activity E. coli pH424 armA [28]: 2-4; Activity E. coli pH425 rmtB [29]: 4; Activity E. coli pH426 rmtC [30]: 4; Activity E. coli pH427 rmtF [31]: 4; Activity E. coli AG153 AAC(3)-II APH(3′)-II rmtB [32]: 8; Activity K. pneum. AG269 AAC(3)-II AAC(6′)-I rmtB [33]: 2; Activity Enterob. AG302 AAC(3)-II AAC(6′)-I rmtC [34]: 4; Activity A baum. AG227 APH(3′)-I armA [35]: 2
